Test results from PubChem BioAssay AID330 (DTP/NCI, 2004).
Where “and” joins values, the source holds several entries; their conditions need not be identical. Equal entries are not always repeated. Toxic doses and inconclusive results are not listed.

System: P388 leukemia ip, CD2F1 mice, survival T/C
Assay: NCI In Vivo Anticancer Drug Screen. Data for tumor model P388 Leukemia (intraperitoneal) in CD2F1 (CDF1) mice
Conditions: endpoint: median survival time, higher = longer survival
How it was run: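 Mice carrying the transplanted tumor received test compound or vehicle. Survival was recorded in each group, and the value is the treated-group measurement divided by that of the vehicle-treated control group.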

[1] = dose: 12.5 mg/kg/injection, schedule: Q01DX009 (ip), vehicle: saline
[2] = dose: 25.0 mg/kg/injection, schedule: Q01DX009 (ip), vehicle: saline
[3] = dose: 50.0 mg/kg/injection, schedule: Q01DX009 (ip), vehicle: saline with Tween-80
[4] = dose: 50.0 mg/kg/injection, schedule: Q01DX009 (ip), vehicle: saline
[5] = dose: 100.0 mg/kg/injection, schedule: Q01DX009 (ip), vehicle: saline with Tween-80
[6] = dose: 100.0 mg/kg/injection, schedule: Q01DX009 (ip), vehicle: saline
[7] = dose: 200.0 mg/kg/injection, schedule: Q01DX009 (ip), vehicle: saline
[8] = dose: 25.0 mg/kg/injection, schedule: Q01DX005 (ip), vehicle: saline with Tween-80
[9] = dose: 50.0 mg/kg/injection, schedule: Q01DX005 (ip), vehicle: saline with Tween-80
[10] = dose: 100.0 mg/kg/injection, schedule: Q01DX005 (ip), vehicle: saline with Tween-80
[11] = dose: 200.0 mg/kg/injection, schedule: Q01DX005 (ip), vehicle: saline with Tween-80
[12] = dose: 60.0 mg/kg/injection, schedule: Q01DX005 (ip), vehicle: saline with Tween-80
[13] = dose: 120.0 mg/kg/injection, schedule: Q01DX005 (ip), vehicle: saline with Tween-80
[14] = dose: 240.0 mg/kg/injection, schedule: Q01DX005 (ip), vehicle: saline with Tween-80
[15] = dose: 200.0 mg/kg/injection, schedule: Q01DX009 (ip), vehicle: saline with Tween-80
[16] = dose: 50.0 mg/kg/injection, schedule: Q01DX005 (ip), vehicle: Klucel (hydroxypropylcellulose) (HPC)
[17] = dose: 100.0 mg/kg/injection, schedule: Q01DX005 (ip), vehicle: Klucel (hydroxypropylcellulose) (HPC)
[18] = dose: 200.0 mg/kg/injection, schedule: Q01DX005 (ip), vehicle: Klucel (hydroxypropylcellulose) (HPC)
[19] = dose: 50.0 mg/kg/injection, schedule: Q01DX009 (ip), vehicle: Klucel (hydroxypropylcellulose) (HPC)
[20] = dose: 100.0 mg/kg/injection, schedule: Q01DX009 (ip), vehicle: Klucel (hydroxypropylcellulose) (HPC)
[21] = dose: 200.0 mg/kg/injection, schedule: Q01DX009 (ip), vehicle: Klucel (hydroxypropylcellulose) (HPC)
[22] = dose: 60.0 mg/kg/injection, schedule: Q01DX005 (ip), vehicle: saline
[23] = dose: 120.0 mg/kg/injection, schedule: Q01DX005 (ip), vehicle: saline
[24] = dose: 240.0 mg/kg/injection, schedule: Q01DX005 (ip), vehicle: saline

O=C1OC(=O)[C@H]2[C@@H]1[C@H]1C=C[C@@H]2OC1=O
T/C (dose: 12.5 mg/kg/injection, schedule: Q01DX009 (ip), vehicle: saline with Tween-80): 123 % of control
T/C [1]: 103 % of control
T/C (dose: 25.0 mg/kg/injection, schedule: Q01DX009 (ip), vehicle: saline with Tween-80): 108 % of control
T/C [2]: 100 % of control
T/C [3]: 105 % of control
T/C [4]: 99 % of control and 92 % of control
T/C [5]: 101 % of control
T/C [6]: 100 % of control
T/C [7]: 98 % of control

CNC(=O)N(C)CP(=O)(O)OC
T/C [4]: 100 % of control
T/C [6]: 98 % of control
T/C [7]: 91 % of control

CCC/C(C)=N/NC(=S)SC
T/C (dose: 6.25 mg/kg/injection, schedule: Q01DX009 (ip), vehicle: saline): 100 % of control
T/C [1]: 98 % of control
T/C [2]: 98 % of control

CCOC(=O)C(N=Nc1ccc(Br)cc1C)C(C)=O (stereo unspecified)
T/C [8]: 98 % of control
T/C [9]: 99 % of control
T/C [10]: 98 % of control
T/C [11]: 89 % of control

CCCNC(=O)ON1C(=O)C2C3C=CC(C3)C2C1=O (stereo unspecified)
T/C (dose: 6.25 mg/kg/injection, schedule: Q01DX005 (ip), vehicle: Klucel (hydroxypropylcellulose) (HPC)): 96 % of control
T/C (dose: 12.5 mg/kg/injection, schedule: Q01DX005 (ip), vehicle: Klucel (hydroxypropylcellulose) (HPC)): 104 % of control
T/C (dose: 25.0 mg/kg/injection, schedule: Q01DX005 (ip), vehicle: Klucel (hydroxypropylcellulose) (HPC)): 96 % of control

CC(=O)Nc1ccc2c(C)cc(Cl)nc2c1
T/C [12]: 95 % of control
T/C [13]: 90 % of control
T/C [14]: 89 % of control

O=C(N/N=C/c1c(O)ccc2ccccc12)C(=O)N/N=C/c1c(O)ccc2ccccc12
T/C (dose: 12.5 mg/kg/injection, schedule: Q01DX005 (ip), vehicle: saline with Tween-80): 97 % of control
T/C [8]: 94 % of control
T/C [9]: 121 % of control
T/C [10]: 186 % of control

CC(=O)NCC(CN(C)C)(c1ccccc1)c1ccccc1
T/C (dose: 37.5 mg/kg/injection, schedule: Q01DX009 (ip), vehicle: Klucel (hydroxypropylcellulose) (HPC)): 101 % of control
T/C (dose: 75.0 mg/kg/injection, schedule: Q01DX009 (ip), vehicle: Klucel (hydroxypropylcellulose) (HPC)): 101 % of control
T/C (dose: 150.0 mg/kg/injection, schedule: Q01DX009 (ip), vehicle: Klucel (hydroxypropylcellulose) (HPC)): 96 % of control
T/C (dose: 300.0 mg/kg/injection, schedule: Q01DX009 (ip), vehicle: Klucel (hydroxypropylcellulose) (HPC)): 95 % of control

S=P(OC1CC2CCC1C2)(c1ccccc1)c1ccccc1 (stereo unspecified)
T/C [3]: 100 % of control
T/C [5]: 103 % of control
T/C [15]: 106 % of control

O=C1c2ccccc2N(Cc2cccc(F)c2)C2=NCCCC12 (stereo unspecified)
T/C [16]: 113 % of control
T/C [17]: 116 % of control
T/C [18]: 100 % of control

Cn1cnc2c(F)ncnc21
T/C [16]: 100 % of control
T/C [17]: 101 % of control

CC(=O)N(O)C1CCCCC1
T/C [3]: 101 % of control
T/C [4]: 112 % of control
T/C [5]: 101 % of control
T/C [6]: 97 % of control
T/C [15]: 103 % of control
T/C [7]: 100 % of control

COC(=O)NC1(NC(=O)OC)NC(=O)c2cc(OC)c(OC)cc2N1
T/C [8]: 102 % of control
T/C [9]: 99 % of control
T/C [10]: 98 % of control
T/C [11]: 118 % of control

O=C(O)CC12CC3CC(CC(C3)C1)C2
T/C [19]: 102 % of control
T/C [20]: 103 % of control
T/C [21]: 102 % of control

O=C(O)CCC12CCC(=O)N1Cc1ccccc1C2=O (stereo unspecified)
T/C [12]: 107 % of control
T/C [13]: 110 % of control
T/C [14]: 109 % of control

CC1C(O)=C(c2ccccc2)P(=O)(Cc2ccccc2)C1C (stereo unspecified)
T/C [22]: 101 % of control
T/C [23]: 100 % of control
T/C [24]: 93 % of control

COC(=O)C1Cc2cocc2CC(C(=O)OC)N1C(=O)OC(C)(C)C (stereo unspecified)
T/C (dose: 8.75 mg/kg/injection, schedule: Q01DX005 (ip), vehicle: Klucel (hydroxypropylcellulose) (HPC)): 99 % of control
T/C (dose: 17.5 mg/kg/injection, schedule: Q01DX005 (ip), vehicle: Klucel (hydroxypropylcellulose) (HPC)): 101 % of control
T/C (dose: 35.0 mg/kg/injection, schedule: Q01DX005 (ip), vehicle: Klucel (hydroxypropylcellulose) (HPC)): 99 % of control

ClC(Cl)(Cl)Sn1cccn1
T/C [3]: 104 % of control
T/C [5]: 97 % of control

COc1cc2c3c4c1OCc1c5c(cc(c1-4)CC3[N+](C)(C)CC2)OCO5 (stereo unspecified)
T/C (dose: 25.0 mg/kg/injection, schedule: Q01DX001 (ip), vehicle: saline): 100 % of control

COc1nc(NC2OCC(O)C(O)C2O)c(C=O)c(=O)n1C (stereo unspecified)
T/C [22]: 100 % of control
T/C [23]: 90 % of control
T/C [24]: 90 % of control

Nc1ncnc2c1c(-c1ccc(Cl)cc1)cn2-c1ccccc1
T/C [12]: 100 % of control
T/C [13]: 96 % of control
T/C [14]: 90 % of control

CCOC(=O)C(C[N+](=O)[O-])(NC(=O)c1ccccc1)C(=O)OCC
T/C [22]: 104 % of control
T/C [23]: 105 % of control
T/C [24]: 99 % of control

O=C(OC1C2C=CC1C1C3CCC(c4ccccc43)C21)c1ccc([N+](=O)[O-])cc1[N+](=O)[O-] (stereo unspecified)
T/C (dose: 100.0 mg/kg/injection, schedule: Q04DX002 (ip), vehicle: saline): 103 % of control
T/C (dose: 200.0 mg/kg/injection, schedule: Q04DX002 (ip), vehicle: saline): 99 % of control
T/C (dose: 400.0 mg/kg/injection, schedule: Q04DX002 (ip), vehicle: saline): 100 % of control

CCC(C)(C)C(=O)O
T/C [5]: 100 % of control
T/C [15]: 100 % of control

CCCCCC(O)C1C(=O)OC(C)C(O)/C=C/C=C/C=C/C=C\C=C(\C)C(O)CC(O)CC(O)CC(O)CC(O)CC(O)CC1O (stereo unspecified)
T/C (dose: 10.0 mg/kg/injection, schedule: Q04DX003 (ip), vehicle: other): 104 % of control
T/C (dose: 20.0 mg/kg/injection, schedule: Q04DX003 (ip), vehicle: other): 95 % of control
T/C [9]: 108 % of control
T/C [10]: 107 % of control
T/C [11]: 103 % of control

O=C(O)CSc1ncccc1Nc1ccc([N+](=O)[O-])cn1
T/C [4]: 102 % of control
T/C [6]: 86 % of control

O=C1OC2(CCCCC2)N(c2ccccc2)C(=O)/C1=C/Nc1ccc(Cl)cc1
T/C [3]: 98 % of control
T/C [5]: 99 % of control
T/C [15]: 92 % of control

CCOC1N=C(c2ccccc2)c2cc(Cl)ccc2NC1=O (stereo unspecified)
T/C [19]: 101 % of control
T/C [20]: 95 % of control
T/C [21]: 93 % of control

Oc1cc2c(cc1C(c1ccc3c(c1)OCO3)n1ccnc1)OCO2 (stereo unspecified)
T/C [12]: 108 % of control
T/C [13]: 98 % of control
T/C [14]: 94 % of control

CC1=CC(C)(C)N=C2SC(=O)c3cc4c(cc3N12)OCO4
T/C (dose: 100.0 mg/kg/injection, schedule: Q04DX002 (ip), vehicle: saline with Tween-80): 106 % of control
T/C (dose: 200.0 mg/kg/injection, schedule: Q04DX002 (ip), vehicle: saline with Tween-80): 98 % of control
T/C (dose: 400.0 mg/kg/injection, schedule: Q04DX002 (ip), vehicle: saline with Tween-80): 97 % of control

O=[N+]([O-])c1ccc(Oc2c3ccccc3nc3ccccc23)cc1
T/C [9]: 90 % of control
T/C [10]: 90 % of control
T/C [11]: 93 % of control

CC1=CCC(C#N)N(C)C1c1ccccc1 (stereo unspecified)
T/C [16]: 108 % of control
T/C [17]: 97 % of control
T/C [18]: 99 % of control

COc1cc(CNc2cccc(F)c2)cc(OC)c1OC
T/C [16]: 100 % of control
T/C [17]: 110 % of control
T/C [18]: 89 % of control

Nc1ccc(CCCCc2ccc(Cl)c(S(=O)(=O)F)c2)c(Cl)c1
T/C [5]: 91 % of control
T/C [15]: 91 % of control

CCOCCOCCSCc1ccccn1
T/C [16]: 109 % of control
T/C [17]: 99 % of control
T/C [18]: 100 % of control

Cc1c2c(c(C)c3c1C(=O)c1cc4c(cc1C3=O)OCO4)OCO2
T/C [12]: 92 % of control
T/C [13]: 99 % of control
T/C [14]: 102 % of control
